Laboratory results published in patent US20230372529A1, “MITOCHONDRIA COMPRISING ANTICANCER DRUG AND USE THEREOF” (Paean Biotechnology Inc., priority 2020, published 2023).

What was measured:
[1] = system: human lung fibroblast cell lines WI-38 and CCD-8Lu; test: proliferation inhibition in normal cells for each concentration, WST-1 assay (DOX series); format: cell-based; details: 0.01 to 2 μM, 144 hours
Procedure: 200 μg of MT^α-HER2scFv and 100 μM doxorubicin (DOX) were reacted in the same manner as in Preparation Example 2 above. In order to confirm the influence of the obtained DOX_MT^α-HER2scFv on cell proliferation in normal cells, the cell proliferation inhibitory effect by treatment with DOX_MT^α-HER2scFv in human lung fibroblasts was evaluated.
(§1) Specifically, the human lung fibroblast cell lines WI-38 and CCD-8Lu were inoculated into a 96-well plate at about 3×10^3 cells/well, respectively, and cultured for 24 hours. At this time, WI-38 and CCD-8Lu were cultured in DMEM medium containing 10% FBS. After culturing for 24 hours, each cell was treated with doxorubicin (DOX) or DOX_MT^α-HER2scFv at a concentration of 2 μM, 1 μM, 0.5 μM, 0.25 μM, 0.1 μM, 0.05 μM, 0.025 μM, and 0.01 μM. After 144 hours of sample treatment, cell proliferation was measured by WST-1 assay.

[2] = system: mouse melanoma cell line B16F10 overexpressing human HER2, allograft; test: anticancer activity of DOX_MT^α-HER2scFv in allograft tumor animal model; format: in vivo; details: MT^α-HER2scFv 20 μg, DOX 4 μg, DOX_MT^α-HER2scFv 4 μg/20 μg, intravenously 3 times a week for 3 weeks
Text: 7-week-old C57BL/6 female mice (Samtako Bio Korea) were acclimatized for 1 week, and then the mouse melanoma cell line B16F10 was subcutaneously transplanted into the lateral abdomen of the mice at about 5×10^5 cells/mouse to construct an allograft tumor mouse. At this time, B16F10 cells in which the human HER2 gene was overexpressed using lentivirus were used as B16F10 cells. When the average volume of the tumor reached 100˜200 mm^3, the mice were divided into 4 groups of 3 mice per test group, and MT^α-HER2scFv (20 μg), DOX (4 μg) or DOX_MT^α-HER2scFv (TPP-DOX/MT: 4 μg/20 μg) was intravenously administered 3 times a week for 3 weeks. The tumor size was measured 3 times a week, and after the end of the experiment (after 3 weeks from the start of administration), the tumor tissues of the mice were extracted, and the size and weight were measured (FIG. 73).

[3] = system: SK-BR-3, BT-474, MDA-MB-231, NCI-H1975, MKN-74 and NCI-N87; test: proliferation inhibition at the same concentration, WST-1 assay, cancer cells (DOX series); format: cell-based; details: Homo sapiens, 144 hours, read-out: cell proliferation inhibitory effect compared to the untreated group, cancer cells
Procedure: (§2) 200 μg of MT^α-HER2scFv and 100 μM doxorubicin (DOX) were reacted in the same manner as in Preparation Example 2 above. In order to compare the influence of the obtained DOX_MT^α-HER2scFv on cell proliferation in cancer cells and normal cells, after treatment with DOX_MT^α-HER2scFv at the same concentration in the human breast cancer, lung cancer, gastric cancer cell lines and the lung fibroblast cell line, the cell proliferation inhibitory ability was measured.
(§3) Specifically, the human breast cancer (SK-BR-3, BT-474 and MDA-MB-231), lung cancer (NCI-H1975), gastric cancer (MKN-74 and NCI-N87) cell lines and the lung fibroblast cell line (CCD-8Lu and WI-38) were inoculated into a 96-well plate at about 3×10^3 cells/well, respectively, and cultured for 24 hours. At this time, SK-BR-3, BT-474 and NCI-N87 cells were cultured in RPMI-1640 medium containing 10% FBS. MDA-MB-231, NCI-H1975, MKN-74, CCD-8Lu, and WI-38 cells were cultured in DMEM medium containing 10% FBS. After culturing for 24 hours, the cells were treated with 0.5 μM doxorubicin (DOX) or DOX_MT^α-HER2scFv respectively, and after 144 hours, the cell proliferation inhibitory ability was evaluated by WST-1 assay. […] Statistical processing was performed using Graphpad 5.0 software, and p values were measured with one-way ANOVA (Turkey's) test (*p<0.05, **p<0.01, and ***p<0.001).

[4] = system: lung fibroblast cell line (CCD-8Lu and WI-38); test: proliferation inhibition at the same concentration, WST-1 assay, normal cells (DOX series); format: cell-based; details: Homo sapiens, 144 hours, read-out: cell proliferation inhibitory effect compared to the untreated group, normal cells
Procedure: as §2, §3

[5] = system: SK-BR-3, BT-474, MDA-MB-231, NCI-H1975, NCI-N87 and MKN-74; test: cancer cell proliferation inhibition for each concentration, WST-1 assay (DOX series); format: cell-based, human; details: 0.01 to 2 μM, 144 hours, versus untreated group (NC)
Procedure: as §1, with “human breast cancer (SK-BR-3, BT-474 and MDA-MB-231),” for “human”, “cancer (NCI-H1975) and gastric cancer (NCI-N87 and MKN-74)” for “fibroblast”, “lines” for “lines WI-38 and CCD-8Lu”, “SK-BR-3, BT-474” for “WI-38”, “NCI-N87 cells were cultured in RPMI-1640 medium containing 10% FBS, and MDA-MB-231, NCI-H1975 and MKN-74 cells” for “CCD-8Lu”

[6] = system: HER2^+ human gastric cancer cell line NCI-N87 xenograft; test: anticancer activity in NCI-N87 xenograft tumor mouse model; format: in vivo; details: 4 μg intravenously
Procedure: 5-week-old BALB/c male nude mice (initial body weight of 18˜20 g) (Nara Biotech) were acclimatized for 1 week, and then HER2^+ human gastric cancer cell line NCI-N87 was subcutaneously transplanted into the lateral abdomen at 1×10^7 cells/mouse to construct a xenograft tumor model mouse. […] The tumor size was measured at an interval of 2˜4 days, and after 25 days from the start of administration, the tumor tissues were extracted, and the size and weight were measured (FIG. 65).

[7] = system: lung fibroblast cell line (CCD-8Lu and WI-38); test: proliferation inhibition at the same concentration, WST-1 assay, normal cells (TPP-DOX series); format: cell-based, human; details: 0.5 μM, 144 hours
Procedure: At this time, the mitochondria-only treated group (MT^α-HER2scFv) was used as a negative control for TPP-DOX_MT^α-HER2scFv. Statistical processing was performed using Graphpad 5.0 software, and p values were measured with one-way ANOVA (Turkey's) test (*p<0.05, **p<0.01 and ***p<0.001).

[8] = system: human lung fibroblast cell lines WI-38 and CCD-8Lu; test: proliferation inhibition in normal cells for each concentration, WST-1 assay (TPP-DOX series); format: cell-based; details: 0.01 to 2 μM, 144 hours
Procedure: Specifically, the human lung fibroblast cell lines WI-38 and CCD-8Lu were inoculated into a 96-well plate at about 3×10^3 cells/well, respectively, and cultured for 24 hours. At this time, WI-38 and CCD-8Lu were cultured in DMEM medium containing 10% FBS. After culturing for 24 hours, each cell was treated with TPP-DOX or TPP-DOX_MT^α-HER2scFv at a concentration of 2 μM, 1 μM, 0.5 μM, 0.25 μM, 0.1 μM, 0.05 μM, 0.025 μM and 0.01 μM. […] At this time, the mitochondria-only treated group (MT, MT^α-HER2scFv) was used as a negative control for TPP-DOX MT^α-HER2scFv.

[9] = system: mouse melanoma cell line B16F10 overexpressing human HER2, allograft; test: anticancer activity of TPP-DOX_MT^α-HER2scFv in allograft tumor mouse model; format: in vivo; details: MT^α-HER2scFv 20 μg, TPP-DOX 5 μg, TPP-DOX/MT 5 μg/20 μg, intravenously 3 times a week for 3 weeks
Procedure: 7-week-old C57BL/6 female mice (Samtako Bio Korea) were acclimatized for 1 week, and then the mouse melanoma cell line B16F10 was subcutaneously transplanted into the lateral abdomen of the mice at about 5×10^5 cells/mouse to construct an allograft tumor mouse. […] When the average volume of the tumor reached 100˜200 mm^3, the mice were divided into 4 groups of 3 mice per test group, and MT^α-HER2scFv (20 μg), TPP-DOX (5 μg) or TPP-DOX_MT^α-HER2scFv (TPP-DOX/MT: 5 μg/20 μg) was intravenously administered 3 times a week for 3 weeks. The tumor size was measured 3 times a week, and after the end of the experiment (after 3 weeks from the start of administration), the tumor tissues of the mice were extracted, and the size and weight were measured (FIG. 69).

[10] = system: SK-BR-3, BT-474, MDA-MB-231, NCI-H1975, NCI-N87 and MKN-74; test: cancer cell proliferation inhibition for each concentration, WST-1 assay (TPP-DOX series); format: cell-based, human; details: 0.01 to 2 μM, 144 hours, versus untreated group (NC)
Procedure: After culturing for 24 hours, each cell was treated with TPP-DOX or TPP-DOX_MT^α-HER2scFv at a concentration of 2 μM, 1 μM, 0.5 μM, 0.25 μM, 0.1 μM, 0.05 μM, 0.025 μM and 0.01 μM. […] At this time, the mitochondria-only treated group (MT, MT^α-HER2scFv) was used as a negative control for TPP-DOX MT^α-HER2scFv.

[11] = target: T1, PDL1 (human, UniProt Q9NZQ7 19-290); test: confocal microscopy, MitoTracker Red-stained scFv-fused mitochondria on co-cultured BXPC-3 (PDL1+) and CFPAC-1 (PDL1-) cells
T1 construct: whole, on cells; also called PDL1 antigen
Procedure: Mitochondria to be used as samples were prepared by treating untreated HEK293 cells (MT) and HEK293 cells comprising mitochondria fused with an anti-PDL1scFv antibody (MT^{α-PDL1scFv}) with MitoTracker Red to stain the mitochondria, and then isolating the mitochondria. After co-culture for 24 hours, each isolated mitochondrion was treated with the co-cultured cells and reacted for 24 hours (FIG. 47).
The cells treated in the same manner as in Example 4 above were washed once with PBS, and fixed by adding 3.7% formaldehyde at room temperature for 30 minutes, and then immunocytochemistry staining was performed. At this time, an anti-PDL1 antibody (Cell signaling, 86744) was used as a primary antibody, and Alexa Fluor 488 goat anti-rabbit IgG (H+L) was used as a secondary antibody. The nuclei of the cells were observed by staining with DAPI.

T1 sequence (Q9NZQ7 19-290): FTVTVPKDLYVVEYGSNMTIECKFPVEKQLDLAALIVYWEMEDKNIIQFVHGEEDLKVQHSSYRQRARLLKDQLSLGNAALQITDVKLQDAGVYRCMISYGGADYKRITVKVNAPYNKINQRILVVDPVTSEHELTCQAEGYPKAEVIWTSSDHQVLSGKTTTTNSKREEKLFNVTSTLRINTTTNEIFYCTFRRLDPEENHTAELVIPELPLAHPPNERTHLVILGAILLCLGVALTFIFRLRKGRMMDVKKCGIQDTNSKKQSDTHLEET

In the case of COc1cccc2c1C(=O)c1c(O)c3c(c(O)c1C2=O)C[C@@](O)(C(=O)CO)C[C@@H]3O[C@H]1C[C@H](N)[C@H](O)[C@H](C)O1 [DOX, doxorubicin], the “cell proliferation inhibitory ability in normal cells” value [1] is reported as “weaker than that of cancer cells”, the “tumor size compared to the control group (CTR)” value [2] is reported as “significantly reduced” and the inhibition at 0.5 µM [3] is reported as 50 to 80%. For the same molecule, the inhibition at 0.5 µM [4] was ≤ 25% and the “cell proliferation inhibitory effect” value [5] was “inhibited in a concentration-dependent manner”.

For “triphenylphosphonium (TPP)-doxorubicin [TPP-DOX]”, the “tumor size by date compared to the control group (CTR)” value [6] was “similar”, the “proliferation inhibitory ability, normal cells” value [7] was “weak” and the “cell proliferation inhibitory ability in normal cells” value [8] was “weaker than that of cancer cells”. For the same molecule, the “tumor size compared to the control group (CTR)” value [9] was “similar” and the “cell proliferation inhibitory effect” value [10] was “inhibited in a concentration-dependent manner”.

B1: anti-PDL1scFv antibody fused to the mitochondrial outer membrane (scFvPDL1-myc-TOM7) (scFv)
scFv: MDIVMSQSPSSLAVSAGEKVTMSCKSSQSLLNSRTRKNYLAWYQQKPGQSPKLLIYWASTRESGVPDRFTGSGSGTDFTLTISSVQAEDLAVYYCQQSYDVVTFGAGTKLELKGGGGSGGGGSGGGGSQVQVQQSGAELAEPGASVKMSCKASGYIFTSYWMHWLKQRPGQGLEWIGYINPSSDYNEYSEKFMDKATLTADKASTTAYMQLISLTSEDSAVYYCARSGWLVHGDYYFDYWGQGTTLTVSSEQKLISEEDLVKLSKEAKQRLQQLFKGSQFAIRWGFIPLVIYLGFKRGADPGMPEPTVLSLLWG
notes: In the assay the fusion protein was anchored on the outer membrane of mitochondria isolated from HEK293 cells (MT^α-PDL1scFv); also called MT^α-PDL1scFv; single chain variable region fragment of an anti-PDL1 antibody
B1: binds [11].
